Columns and labels:
Experiment in all cases: Bacterial cross-tolerance testing of resistant mutant plasmids in SASX38, Arabidopsis protox-1 mutants
Type in all cases: cell-based
Design in all cases: key to Cross tolerance, AraC-1Val / Cross tolerance, AraC-2Cys / Cross tolerance, AraC-1Thr / Cross tolerance, AraC-3Thr / Cross tolerance, AraC-2Ile / Cross tolerance, AraC-2Cys + AraC425Ser: + = 10× or more tolerant than WT; ++ = 100× or more tolerant than WT; − = no cross tolerance
[1] = target: T1, plant protox mutants (Arabidopsis protox-1) in SASX38 (Arabidopsis thaliana, UniProt P55826, T56K/Y426C); settings: mutant AraC-2Cys vs WT plasmid in SASX38
T1 construct: contains only 17 amino acids of the putative chloroplast transit peptide; expressed in transfected cells; host or cells: E. coli SASX38 (hemG mutant)
Procedure: (§1) Resistant mutant plasmids, originally identified based on resistance against a single protox inhibitory herbicide, were tested against a spectrum of other protox inhibiting compounds. For this test, the SASX38 strain containing the wild-type plasmid is plated on a range of concentrations of each compound to determine the lethal concentration for each one. Resistant mutant plasmids in SASX38 are plated and scored for the ability to survive on a concentration of each compound at least 10 fold higher than the concentration that is lethal to the SASX38 strain containing the wild-type plasmid.

[2] = target: T2, plant protox mutants (Arabidopsis protox-1) in SASX38 (Arabidopsis thaliana, UniProt P55826, S305L/T56K/Y426I); settings: mutant AraC-2Ile + AraC305Leu
T2 construct: contains only 17 amino acids of the putative chloroplast transit peptide; expressed in transfected cells; host or cells: E. coli SASX38 (hemG mutant)
Procedure: as §1

[3] = target: T3, plant protox mutants (Arabidopsis protox-1) in SASX38 (Arabidopsis thaliana, UniProt P55826, A220L/T56K/Y426M); settings: mutant AraC-1Leu + AraC-2Met
T3 construct: contains only 17 amino acids of the putative chloroplast transit peptide; expressed in transfected cells; host or cells: E. coli SASX38 (hemG mutant)
Procedure: as §1

[4] = target: T4, plant protox mutants (Arabidopsis protox-1) in SASX38 (Arabidopsis thaliana, UniProt P55826, A220V/T56K); settings: mutant AraC-1Val vs WT plasmid in SASX38
T4 construct: contains only 17 amino acids of the putative chloroplast transit peptide; expressed in transfected cells; host or cells: E. coli SASX38 (hemG mutant)
Procedure: as §1

[5] = test system: plant protox mutants (Arabidopsis protox-1) in SASX38; settings: mutant AraC-3Thr vs WT plasmid in SASX38
Procedure: as §1

[6] = target: T5, plant protox mutants (Arabidopsis protox-1) in SASX38 (Arabidopsis thaliana, UniProt P55826, A220L/T56K/Y426L); settings: mutant AraC-1Leu + AraC-2Leu
T5 construct: contains only 17 amino acids of the putative chloroplast transit peptide; expressed in transfected cells; host or cells: E. coli SASX38 (hemG mutant)
Procedure: as §1

[7] = target: T6, plant protox mutants (Arabidopsis protox-1) in SASX38 (Arabidopsis thaliana, UniProt P55826, N425S/T56K/Y426M); settings: mutant AraC-2Met + AraC425Ser
T6 construct: contains only 17 amino acids of the putative chloroplast transit peptide; expressed in transfected cells; host or cells: E. coli SASX38 (hemG mutant)
Procedure: as §1

[8] = target: T7, plant protox mutants (Arabidopsis protox-1) in SASX38 (Arabidopsis thaliana, UniProt P55826, N425S/T56K/Y426C); settings: mutant AraC-2Cys + AraC425Ser
T7 construct: contains only 17 amino acids of the putative chloroplast transit peptide; expressed in transfected cells; host or cells: E. coli SASX38 (hemG mutant)
Procedure: as §1

[9] = target: T8, plant protox mutants (Arabidopsis protox-1) in SASX38 (Arabidopsis thaliana, UniProt P55826, A220L/T56K); settings: mutant AraC-1Leu
T8 construct: contains only 17 amino acids of the putative chloroplast transit peptide; expressed in transfected cells; host or cells: E. coli SASX38 (hemG mutant)
Procedure: as §1

[10] = target: T9, plant protox mutants (Arabidopsis protox-1) in SASX38 (Arabidopsis thaliana, UniProt P55826, A220T/T56K); settings: mutant AraC-1Thr vs WT plasmid in SASX38
T9 construct: contains only 17 amino acids of the putative chloroplast transit peptide; expressed in transfected cells; host or cells: E. coli SASX38 (hemG mutant)
Procedure: as §1

T6 sequence (P55826 41-537 T56K/N425S/Y426M): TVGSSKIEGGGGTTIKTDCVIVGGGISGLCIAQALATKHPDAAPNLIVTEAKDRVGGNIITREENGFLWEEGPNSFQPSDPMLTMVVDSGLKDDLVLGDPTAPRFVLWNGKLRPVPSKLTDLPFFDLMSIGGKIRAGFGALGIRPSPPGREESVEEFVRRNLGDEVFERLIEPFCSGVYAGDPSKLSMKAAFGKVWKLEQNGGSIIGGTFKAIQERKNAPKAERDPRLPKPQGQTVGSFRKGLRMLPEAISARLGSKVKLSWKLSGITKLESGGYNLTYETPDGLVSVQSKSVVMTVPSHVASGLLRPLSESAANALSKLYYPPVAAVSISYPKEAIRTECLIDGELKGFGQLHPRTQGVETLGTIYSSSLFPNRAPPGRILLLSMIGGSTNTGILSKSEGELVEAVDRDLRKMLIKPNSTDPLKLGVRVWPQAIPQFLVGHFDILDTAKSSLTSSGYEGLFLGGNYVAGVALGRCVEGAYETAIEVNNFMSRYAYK
T8 sequence (P55826 41-537 T56K/A220L): as the sequence (P55826 41-537 T56K/N425S/Y426M) above, with A180L, S385N, M386Y counted along it
T1 sequence (P55826 41-537 T56K/Y426C): as the sequence (P55826 41-537 T56K/N425S/Y426M) above, with S385N, M386C counted along it
T3 sequence (P55826 41-537 T56K/A220L/Y426M): as the sequence (P55826 41-537 T56K/N425S/Y426M) above, with A180L, S385N counted along it
T2 sequence (P55826 41-537 T56K/S305L/Y426I): as the sequence (P55826 41-537 T56K/N425S/Y426M) above, with S265L, S385N, M386I counted along it
T4 sequence (P55826 41-537 T56K/A220V): as the sequence (P55826 41-537 T56K/N425S/Y426M) above, with A180V, S385N, M386Y counted along it
T9 sequence (P55826 41-537 T56K/A220T): as the sequence (P55826 41-537 T56K/N425S/Y426M) above, with A180T, S385N, M386Y counted along it
T7 sequence (P55826 41-537 T56K/N425S/Y426C): as the sequence (P55826 41-537 T56K/N425S/Y426M) above, with M386C counted along it
T5 sequence (P55826 41-537 T56K/A220L/Y426L): as the sequence (P55826 41-537 T56K/N425S/Y426M) above, with A180L, S385N, M386L counted along it

| SMILES | Cross tolerance, AraC-2Cys [1] | Cross tolerance, AraC-2Ile + AraC305Leu [2] | Cross tolerance, AraC-1Leu + AraC-2Met [3] | Cross tolerance, AraC-1Val [4] | Cross tolerance, AraC-3Thr [5] | Cross tolerance, AraC-1Leu + AraC-2Leu [6] | Cross tolerance, AraC-2Met + AraC425Ser [7] | Cross tolerance, AraC-2Cys + AraC425Ser [8] | Cross tolerance, AraC-1Leu [9] | Cross tolerance, AraC-1Thr [10] |
| --- | --- | --- | --- | --- | --- | --- | --- | --- | --- | --- |
| CCCCCOC(=O)COc1cc(N2C(=O)C3=C(CCCC3)C2=O)c(F)cc1Cl [XIV] | − | ++ (++ = 100× or more tolerant than WT) | ++ (++ = 100× or more tolerant than WT) | + (+ = 10× or more tolerant than WT) | + (+ = 10× or more tolerant than WT) | ++ (++ = 100× or more tolerant than WT) | ++ (++ = 100× or more tolerant than WT) | − | ++ (++ = 100× or more tolerant than WT) | + (+ = 10× or more tolerant than WT) |
| CC(C)OC(=O)c1cc(-n2c(=O)cc(C(F)(F)F)n(C)c2=O)ccc1Cl [XI] | + (+ = 10× or more tolerant than WT) | ++ (++ = 100× or more tolerant than WT) | ++ (++ = 100× or more tolerant than WT) | − | ++ (++ = 100× or more tolerant than WT) | ++ (++ = 100× or more tolerant than WT) | ++ (++ = 100× or more tolerant than WT) | ++ (++ = 100× or more tolerant than WT) | ++ (++ = 100× or more tolerant than WT) | + (+ = 10× or more tolerant than WT) |
| CCOC(=O)COC(=O)c1cc(Oc2ccc(C(F)(F)F)cc2Cl)ccc1[N+](=O)[O-] [IV] | − | + (+ = 10× or more tolerant than WT) | + (+ = 10× or more tolerant than WT) | ++ (++ = 100× or more tolerant than WT) | ++ (++ = 100× or more tolerant than WT) | ++ (++ = 100× or more tolerant than WT) | + (+ = 10× or more tolerant than WT) | − | ++ (++ = 100× or more tolerant than WT) | ++ (++ = 100× or more tolerant than WT) |
| COC(=O)CSc1cc(N=c2sc(=O)n3n2CCCC3)c(F)cc1Cl [VIIa] | + (+ = 10× or more tolerant than WT) | ++ (++ = 100× or more tolerant than WT) | ++ (++ = 100× or more tolerant than WT) | + (+ = 10× or more tolerant than WT) | − | ++ (++ = 100× or more tolerant than WT) | ++ (++ = 100× or more tolerant than WT) | ++ (++ = 100× or more tolerant than WT) | ++ (++ = 100× or more tolerant than WT) | + (+ = 10× or more tolerant than WT) |
